Assay results from patent US20230416196A1, “DIMER OF BIGUANIDINES AND THEIR THERAPEUTIC USES” (INSTITUT CURIE, priority 2020, published 2023).

Key:
[1] = Copper-catalyzed oxidation of NADH by H2O2 (cell-free); assay type: biochemical; details: H2O2 present; FIG. 3C
Procedure: Copper-catalyzed oxidation of NADH. The oxidation kinetics of NADH (N4505, Sigma-Aldrich) was followed by measurement of absorbance at 340 nm using a NanoDrop 2000. Measurements were performed at 26° C. A 10 mM sodium phosphate buffer adjusted to pH=7.2 was used as solvent. Each 500 μL mixture were prepared with NADH (400 μM), imidazole (56750, Sigma-Aldrich, 10 mM), CuSO4 (451657, Sigma-Aldrich, 4 μM), LCC/K2CO3 solution (1:1) (4 μM or 400 μM), metformin/K2CO3 solution (2:1) (J63361, Alfa Aesar, 800 μM), as indicated, and a H2O2 solution (16911, Sigma-Aldrich, 2 mM from an aq. solution 25-35% in H2O2) added at the reaction start time. The concentration of NADH was calculated from the measured absorbance at 340 nm and a molar extinction coefficient of […] L mol^−1 cm^−1.

[2] = tested on: mitochondrial NAD^+ and NADH in aMDM; test: Mass spectrometry-based metabolomics of mitochondrial NAD+ and NADH in aMDM; assay type: cell-based, human; details: treatment during macrophage activation; FIG. 11D
Procedure: Mitochondrial extraction. Mitochondria were isolated using the Qproteome Mitochondria Isolation Kit (Qiagen, 37612) according to the manufacturer's protocol. In brief, cells were washed and centrifuged at 500× g for 10 min and the supernatant was removed. Cells were then washed with a solution of 0.9% NaCl (Sigma-Aldrich, 57653-250G) and resuspended in ice-cold Lysis Buffer and incubated at 4° C. for 10 min. The lysate was then centrifuged at 1000×g for 10 min at 4° C. and the supernatant carefully removed. Subsequently, the cell pellet was resuspended in disruption buffer. Complete cell disruption was obtained by using a dounce homogenizer (mitochondria for ICP-MS) or a blunt-ended needle and a syringe (mitochondria for metabolomics). The lysate was then centrifuged at 1000× g for 10 min at 4° C. and the supernatant transferred to a clean tube. The supernatant was then centrifuged at 6000× g for 10 min at 4° C. to obtain pellets containing mitochondria.
Quantitative metabolomics. In a typical experiment 1.5 million cells were used for total extracts and 15 million cells for mitochondrial extracts. Cells were harvested and the supernatant removed to generate the corresponding cell pellets. […] Peak detection and integration of the analytes were performed using the Agilent Mass Hunter quantitative software (B.07.01). […]

dendritic cells = test: Activation of dendritic cells (CD40, CD83, CD80, CD86 flow cytometry); assay type: cell-based, human; details: LCC-12 10 μM, 24 h, LPS; FIG. 6E
Procedure: Dendritic cells. Peripheral blood samples were collected from healthy donors (Etablissement Français du Sang). Pan monocytes were isolated by negative magnetic sorting using microbeads according to the manufacturer's instructions (Miltenyi Biotec, 130-096-537), and cultured in RPMI 1640 supplemented with glutamine, 10% fetal bovine serum and treated with granulocyte-macrophage colony-stimulating factor (GM-CSF, 100 ng/mL) and IL-4 (10 ng/mL) to induce differentiation into dendritic cells (DC). At day 5 of differentiation, DC were treated with lipopolysaccharides (LPS, 100 ng/mL, 24 h) to generate activated DC and were co-treated with LCC-12 (in-house, 10 μM, 24 h). The activation status of the dendritic cells was assessed by measuring CD40, CD83, CD80 and CD86 surface markers by flow cytometry.

Maximum tolerated dose = details: stated relative to the 0.3 mg/kg/day dose used

## N=C(N)NC(=N)NCCCCCCCCCCCCNC(=N)NC(=N)N [LCC-12, lipophilic copper clamp C12]
[1]
  rate of NADH oxidation catalyzed by copper(II): more pronounced effect
[2]
  mitochondrial NAD^+ and NADH levels: decrease of both mitochondrial NAD^+ and NADH
Dendritic cells
  activation of dendritic cells: decreases the activation
Maximum tolerated dose
  maximum tolerated dose (MTD): 0.3 mg/kg/day, a dose 10 times lower than the maximum tolerated dose
